The record followed here is patent publication US20230265151A1, “GIP/GLP1 CO-AGONIST COMPOUNDS” (priority 2020, published 2023).

Holding throughout (assay type): cell-based
One experiment deals with T1, hGIPR (Homo sapiens, UniProt P48546).
T1 construct: expressed in transfected cells
T1 sequence (P48546 22-466): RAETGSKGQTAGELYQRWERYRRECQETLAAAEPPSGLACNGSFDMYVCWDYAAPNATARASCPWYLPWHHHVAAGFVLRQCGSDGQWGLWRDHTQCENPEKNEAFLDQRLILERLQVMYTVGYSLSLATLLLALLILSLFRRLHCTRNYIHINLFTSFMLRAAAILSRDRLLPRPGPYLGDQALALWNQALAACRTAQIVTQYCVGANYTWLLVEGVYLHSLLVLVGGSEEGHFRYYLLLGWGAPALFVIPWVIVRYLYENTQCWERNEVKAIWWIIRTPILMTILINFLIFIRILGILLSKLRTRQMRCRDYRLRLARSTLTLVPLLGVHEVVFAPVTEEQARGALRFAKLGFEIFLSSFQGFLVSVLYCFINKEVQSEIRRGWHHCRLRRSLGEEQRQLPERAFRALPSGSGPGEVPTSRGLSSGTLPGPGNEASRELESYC
Description: Functional cAMP formation (HTRF) in HEK-293 clonal cells expressing hGIPR, 0.1% bovine casein, without or with 1.0% human serum albumin. Conditions: for Emax: 37° C.; for EC50: cAMP, incubated at 37° C., 0.1% bovine casein (no human serum albumin), geometric mean. A digest of the protocol:
(§1)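 Cells were stimulated with peptide for 30 min at 37° C, then lysed in buffer carrying cAMP-d2 and anti-cAMP Eu3+-cryptate for a competitive HTRF read after at least 60 min at room temperature. The 665/620 nm ratio was converted to nM cAMP against a standard curve.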

A further experiment concerns the target hGLP-1R (Homo sapiens, UniProt P43220). The experiment is described as follows: Functional cAMP formation (HTRF) in HEK-293 clonal cells expressing hGLP-1R, 0.1% bovine casein, without or with 1.0% human serum albumin. More on the design: expressed in transfected cells. As to conditions: geometric mean. The gist of the method: as §1
(Cyclic AMP is a second messenger, typically raised through Gs and lowered through Gi signalling.)

In the next experiment the target is T2, hGCGR (Homo sapiens, UniProt P47871).
T2 construct: expressed in transfected cells
T2 sequence (P47871 26-477): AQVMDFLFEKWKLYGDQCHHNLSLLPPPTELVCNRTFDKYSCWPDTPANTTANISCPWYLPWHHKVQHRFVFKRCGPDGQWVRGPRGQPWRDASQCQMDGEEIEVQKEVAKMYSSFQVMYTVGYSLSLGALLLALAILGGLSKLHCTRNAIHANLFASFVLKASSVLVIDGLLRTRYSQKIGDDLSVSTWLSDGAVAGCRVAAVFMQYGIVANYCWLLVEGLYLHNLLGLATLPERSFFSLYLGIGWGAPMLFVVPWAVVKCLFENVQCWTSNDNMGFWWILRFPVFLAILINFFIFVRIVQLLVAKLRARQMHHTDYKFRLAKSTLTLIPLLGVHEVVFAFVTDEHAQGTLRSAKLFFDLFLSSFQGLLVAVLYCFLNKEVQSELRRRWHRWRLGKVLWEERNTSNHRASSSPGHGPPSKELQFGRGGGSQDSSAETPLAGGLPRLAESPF
The experiment is described as follows: Functional cAMP formation (HTRF) in HEK-293 clonal cells expressing hGCGR, 0.1% bovine casein, without or with 1.0% human serum albumin. As to conditions: geometric mean. A digest of the protocol:
as §1

Like-named read-outs stand apart in the source and are kept apart here.

Sequence of hGLP-1R (P43220 24-463): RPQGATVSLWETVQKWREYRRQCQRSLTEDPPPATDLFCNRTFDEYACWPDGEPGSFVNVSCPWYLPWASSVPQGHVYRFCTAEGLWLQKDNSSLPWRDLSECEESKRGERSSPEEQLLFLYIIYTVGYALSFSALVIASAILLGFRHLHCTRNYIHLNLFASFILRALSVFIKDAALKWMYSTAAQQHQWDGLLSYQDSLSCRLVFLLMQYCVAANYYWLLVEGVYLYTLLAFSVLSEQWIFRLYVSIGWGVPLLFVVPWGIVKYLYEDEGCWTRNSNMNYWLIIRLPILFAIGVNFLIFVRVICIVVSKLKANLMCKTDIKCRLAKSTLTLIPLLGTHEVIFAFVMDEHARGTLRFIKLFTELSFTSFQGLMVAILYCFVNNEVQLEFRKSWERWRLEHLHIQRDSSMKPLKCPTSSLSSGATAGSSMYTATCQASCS

Regarding `CC[C@H](C)[C@H](NC(=O)[C@H](CC(C)C)NC(=O)[C@](C)(Cc1ccc(O)cc1)NC(=O)[C@@H](CCC(=O)O)NC(=O)[C@@H](NC(=O)[C@H](Cc1ccccc1)NC(=O)[C@H](CCC(=O)O)NC(=O)C(C)(C)NC(=O)[C@H](CCC(N)=O)NC(=O)[C@H](C)NC(=O)[C@H](CCCCNC(=O)COCCOCCNC(=O)COCCOCCNC(=O)CC[C@H](NC(=O)CCCCCCCCCCCCC(=O)O)C(=O)O)NC(=O)[C@H](CCCN)NC(=O)[C@H](CC(=O)O)NC(=O)[C@H](CC(C)C)NC(=O)[C@](C)(CC(C)C)NC(=O)[C@@H](NC(=O)[C@H](CO)NC(=O)[C@H](Cc1ccc(-c2ccccc2)cc1)NC(=O)[C@H](CC(=O)O)NC(=O)[C@H](CO)NC(=O)[C@@H](NC(=O)[C@](C)(Cc1ccccc1F)NC(=O)[C@@H](NC(=O)CNC(=O)[C@H](CCC(=O)O)NC(=O)C(C)(C)NC(=O)[C@@H](N)Cc1ccc(O)cc1)[C@@H](C)O)[C@@H](C)O)[C@@H](C)CC)[C@@H](C)CC)C(=O)N[C@@H](CCC(=O)O)C(=O)NCC(=O)NCC(=O)N[C@@H](CCCCNC(=O)COCCOCCNC(=O)COCCOCCNC(=O)CC[C@H](NC(=O)CCCCCCCCCCCCC(=O)O)C(=O)O)C(=O)N[C@@H](CO)C(=O)N[C@@H](CO)C(=O)NCC(=O)N[C@@H](C)C(=O)N1CCC[C@H]1C(=O)N1CCC[C@H]1C(=O)N1CCC[C@H]1C(=O)N[C@@H](CO)C(N)=O` [Example 55], the Emax on hGIPR (HEK293, 0.1% bovine casein and 1.0% human serum albumin, percent of maximal response to GIP(1-42)NH2, read-out: hGIPR Emax, % ± SEM) turned out to be 85.7 ± 0.885%; at hGIPR (HEK293, percent of maximal response to GIP(1-42)NH2, 0.1% bovine casein, arithmetic mean, read-out: hGIPR Emax, % ± SEM) it was 97.1 ± 2.16%. In addition, the EC50 was 0.0207 nM at hGIPR (read-out: hGIPR EC50, nM (SEM, n)); 70.5 nM at hGLP-1R (0.1% bovine casein and 1.0% human serum albumin, 37° C., read-out: hGLP-1R EC50, nM (SEM, n)); 0.154 nM at hGLP-1R (cAMP, incubated at 37° C., 0.1% bovine casein (no human serum albumin), read-out: hGLP-1R EC50, nM (SEM, n)); above 9950 nM at hGCGR (0.1% bovine casein and 1.0% human serum albumin, 37° C., read-out: hGCGR EC50, nM (SEM, n)); above 9950 nM on hGCGR (cAMP, incubated at 37° C., 0.1% bovine casein (no human serum albumin), read-out: hGCGR EC50, nM (SEM, n)).

On to `CC[C@H](C)[C@H](NC(=O)[C@H](CC(C)C)NC(=O)[C@](C)(Cc1ccc(O)cc1)NC(=O)[C@H](CCCCNC(=O)COCCOCCNC(=O)COCCOCCNC(=O)CC[C@H](NC(=O)CCCCCCCCCCCCC(=O)O)C(=O)O)NC(=O)[C@@H](NC(=O)[C@H](Cc1ccccc1)NC(=O)[C@H](CCC(=O)O)NC(=O)C(C)(C)NC(=O)[C@H](CCC(N)=O)NC(=O)[C@H](C)NC(=O)[C@H](CCCCNC(=O)COCCOCCNC(=O)COCCOCCNC(=O)CC[C@H](NC(=O)CCCCCCCCCCCCC(=O)O)C(=O)O)NC(=O)[C@H](CCCN)NC(=O)[C@H](CC(=O)O)NC(=O)[C@H](CC(C)C)NC(=O)[C@](C)(CC(C)C)NC(=O)[C@@H](NC(=O)[C@H](CO)NC(=O)[C@@H](NC(=O)[C@H](CC(=O)O)NC(=O)[C@H](CO)NC(=O)[C@@H](NC(=O)[C@](C)(Cc1ccccc1)NC(=O)[C@@H](NC(=O)CNC(=O)[C@H](CCC(=O)O)NC(=O)C(C)(C)NC(=O)[C@@H](N)Cc1ccc(O)cc1)[C@@H](C)O)[C@@H](C)O)C(C)C)[C@@H](C)CC)[C@@H](C)CC)C(=O)N[C@@H](CCC(=O)O)C(=O)NCC(=O)NCC(=O)N1CCC[C@H]1C(=O)N[C@@H](CO)C(=O)N[C@@H](CO)C(=O)NCC(=O)N[C@@H](C)C(=O)N1CCC[C@H]1C(=O)N1CCC[C@H]1C(=O)N1CCC[C@H]1C(=O)N[C@@H](CO)C(N)=O` [Example 181], for which, at hGIPR (HEK293, read-out: hGIPR Emax, % ± SEM, percent of maximal response to GIP(1-42)NH2, 0.1% bovine casein, arithmetic mean), the Emax was determined as 94.6%. Moreover, the EC50 at hGIPR (hGIPR EC50, nM (SEM, n)) is 0.154 nM; at hGLP-1R (hGLP-1R EC50, nM (SEM, n), cAMP, incubated at 37° C., 0.1% bovine casein (no human serum albumin)), 0.182 nM; at hGCGR (hGCGR EC50, nM (SEM, n), cAMP, incubated at 37° C., 0.1% bovine casein (no human serum albumin)), above 9950 nM.

The Emax is the maximal effect, on the per cent scale that the assay sets. A word on the EC50: it is the concentration at which the effect is half-maximal.
